Data: article PMC7044277 (Nature Communications, 2020)
“And” between values parts separate entries of the source, which are not always exact repeats. Equal entries are not always repeated.

Experiments:
Type in all cases: cell-based
320 non-olfactory GPCRs [1] = molecular target: T1, 320 non-olfactory GPCRs (Homo sapiens, UniProt P29274)
T1 construct: expressed in transfected cells; host or cells: HTLA cells

320 non-olfactory GPCRs [2] = molecular target: T2, 320 non-olfactory GPCRs (Homo sapiens, UniProt P51582); settings: receptor P2RY4; replicate values, Fig_4g
T2 construct: expressed in transfected cells; host or cells: HTLA cells
T2 sequence (P51582 whole entry): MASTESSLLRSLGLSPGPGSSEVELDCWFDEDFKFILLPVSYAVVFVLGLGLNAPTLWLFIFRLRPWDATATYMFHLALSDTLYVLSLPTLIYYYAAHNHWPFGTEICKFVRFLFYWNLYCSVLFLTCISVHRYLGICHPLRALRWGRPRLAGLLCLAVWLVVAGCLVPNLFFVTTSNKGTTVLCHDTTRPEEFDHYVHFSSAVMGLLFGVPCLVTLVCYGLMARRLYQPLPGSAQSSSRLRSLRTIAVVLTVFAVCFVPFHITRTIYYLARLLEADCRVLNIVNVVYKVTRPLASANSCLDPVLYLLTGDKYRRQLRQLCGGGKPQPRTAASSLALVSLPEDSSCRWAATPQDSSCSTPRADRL

320 non-olfactory GPCRs [3] = molecular target: 320 non-olfactory GPCRs (Homo sapiens, UniProt P61073)
Sequence of 320 non-olfactory GPCRs (Homo sapiens, UniProt P61073) (P61073 whole entry): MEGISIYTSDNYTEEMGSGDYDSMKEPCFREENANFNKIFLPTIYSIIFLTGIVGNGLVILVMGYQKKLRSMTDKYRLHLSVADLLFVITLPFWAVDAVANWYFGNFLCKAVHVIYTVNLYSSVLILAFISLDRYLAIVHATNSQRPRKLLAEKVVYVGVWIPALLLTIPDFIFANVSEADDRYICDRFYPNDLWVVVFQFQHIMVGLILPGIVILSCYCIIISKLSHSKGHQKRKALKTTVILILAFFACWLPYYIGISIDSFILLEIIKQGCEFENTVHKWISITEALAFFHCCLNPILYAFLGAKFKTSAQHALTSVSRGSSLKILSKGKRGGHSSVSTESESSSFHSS

320 non-olfactory GPCRs [4] = molecular target: T3, 320 non-olfactory GPCRs (Homo sapiens, UniProt Q96RI0)
T3 construct: expressed in transfected cells; host or cells: HTLA cells
T3 sequence (Q96RI0 18-385): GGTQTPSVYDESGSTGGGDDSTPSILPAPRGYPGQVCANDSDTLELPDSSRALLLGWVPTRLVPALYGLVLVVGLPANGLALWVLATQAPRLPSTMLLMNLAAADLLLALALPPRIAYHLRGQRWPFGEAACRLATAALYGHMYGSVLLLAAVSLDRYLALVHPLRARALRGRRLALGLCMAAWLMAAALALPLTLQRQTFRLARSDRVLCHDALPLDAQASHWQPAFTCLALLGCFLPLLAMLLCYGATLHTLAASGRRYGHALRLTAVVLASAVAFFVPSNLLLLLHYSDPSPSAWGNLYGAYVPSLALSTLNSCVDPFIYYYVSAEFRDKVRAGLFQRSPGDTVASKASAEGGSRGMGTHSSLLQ
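For Fold of Basal in this document: compound tested at 1 µM final concentration.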
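For GPCRome agonism screen response in this document: fold over basal response of each receptor without drug.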

T1 sequence (P29274 whole entry): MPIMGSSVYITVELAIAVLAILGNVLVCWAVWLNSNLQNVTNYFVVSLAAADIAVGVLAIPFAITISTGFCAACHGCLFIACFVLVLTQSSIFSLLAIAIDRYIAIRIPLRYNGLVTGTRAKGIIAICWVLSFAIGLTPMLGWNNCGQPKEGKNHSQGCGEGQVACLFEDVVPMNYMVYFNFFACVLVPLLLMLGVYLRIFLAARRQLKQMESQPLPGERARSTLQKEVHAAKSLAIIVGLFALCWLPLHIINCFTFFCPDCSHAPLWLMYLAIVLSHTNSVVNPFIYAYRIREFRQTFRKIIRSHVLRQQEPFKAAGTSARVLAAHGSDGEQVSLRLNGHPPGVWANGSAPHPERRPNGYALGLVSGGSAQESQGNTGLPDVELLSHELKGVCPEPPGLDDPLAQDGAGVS

CCOc1cccc2cc(C(C)NCC3(O)CCCCC3)oc12 (stereo not shown) [O4LE6]
Fold of Basal (320 non-olfactory GPCRs [1]): 0.5279 and 0.6435 and 0.5264 and 0.5735
GPCRome agonism screen response (320 non-olfactory GPCRs [2]): 0.9286 and 1.003 and 1.314 and 2.009
Fold of Basal (320 non-olfactory GPCRs [3]): 0.9863 and 0.8615 and 0.8471 and 0.9066
Fold of Basal (320 non-olfactory GPCRs [4]): 0.98 and 0.6043 and 0.591 and 0.7202
